ChEMBL document CHEMBL4177765, “Structure-Based Design of Inhibitors Targeting PrfA, the Master Virulence Regulator of Listeria monocytogenes” (J Med Chem, 2018)
Active and inactive are the calls of the source. No cut-off for these calls is given here.

Columns and labels:
[1] = molecular target: T1, Listeriolysin regulatory protein (Listeria monocytogenes serovar 1/2a (strain ATCC BAA-679 / EGD-e), UniProt P22262); test: Binding affinity to Listeria monocytogenes 6-His-tagged PrfA expressed in Escherichia coli BL21 (DE3) pLysS assessed as inhibition of protein binding with biotinylated hpt-DNA by SPR method
T1 sequence (P22262 whole entry): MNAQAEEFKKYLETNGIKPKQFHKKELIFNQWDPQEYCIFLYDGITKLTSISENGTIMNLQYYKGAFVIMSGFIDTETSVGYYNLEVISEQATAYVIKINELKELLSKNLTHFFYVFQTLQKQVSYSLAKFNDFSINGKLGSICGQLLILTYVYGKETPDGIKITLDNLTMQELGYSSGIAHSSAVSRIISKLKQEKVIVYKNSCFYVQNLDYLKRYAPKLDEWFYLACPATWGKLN

[2] = molecular target: T2, Listeriolysin regulatory protein (Listeria monocytogenes serovar 1/2a (strain ATCC BAA-679 / EGD-e)) (UniProt P22262); test: Inhibition of PrfA in Listeria monocytogenes EGD-e assessed as downregulation of ActA expression at 10 uM by Western blot method
T2 sequence (whole entry): T1 sequence (P22262 whole entry)

[3] = molecular target: T2, Listeriolysin regulatory protein (Listeria monocytogenes serovar 1/2a (strain ATCC BAA-679 / EGD-e)); test: Inhibition of PrfA in Listeria monocytogenes EGD-e assessed as downregulation of ActA expression at 1 uM by Western blot method
[4] = molecular target: T2, Listeriolysin regulatory protein (Listeria monocytogenes serovar 1/2a (strain ATCC BAA-679 / EGD-e)); test: Inhibition of PrfA in Listeria monocytogenes EGD-e assessed as downregulation of LLO expression at 1 uM by Western blot method
[5] = molecular target: T2, Listeriolysin regulatory protein (Listeria monocytogenes serovar 1/2a (strain ATCC BAA-679 / EGD-e)); test: Inhibition of PrfA in Listeria monocytogenes EGD-e assessed as downregulation of LLO expression at 10 uM by Western blot method
[6] = molecular target: T2, Listeriolysin regulatory protein (Listeria monocytogenes serovar 1/2a (strain ATCC BAA-679 / EGD-e)); test: Binding affinity to GFP expressing Listeria monocytogenes EGD-e PrfA expressed in Escherichia coli assessed as inhibition of bacterial uptake in human Caco2 cells at 20 uM incubated for 4 hrs by flow cytometric method relative to (R)-8-cyclopropyl-7-(naphthalen-1-ylmethyl)-5-oxo-3,5-dihydro-2H-thiazolo[3,2-a]pyridine-3-carboxylic acid
Listeria monocytogenes [7] = test: Effect on growth of Listeria monocytogenes EGD-e at 100 uM after 7 hrs; format: organism-based; details: in vivo
[8] = molecular target: T2, Listeriolysin regulatory protein (Listeria monocytogenes serovar 1/2a (strain ATCC BAA-679 / EGD-e)); test: Binding affinity to Listeria monocytogenes 6-His-tagged PrfA expressed in Escherichia coli BL21 (DE3) pLysS by ITC method
Gallus gallus = organism: Gallus gallus; test: Toxicity in chicken embryo at 4 to 8 uM measured over 72 hrs; format: organism-based; details: in vivo
Listeria monocytogenes [9] = test: Antivirulence activity against Listeria monocytogenes EGD-e infected in chicken embryo assessed as increase in embryo life span at 5 uM measured over 72 hrs; format: functional
[10] = molecular target: T2, Listeriolysin regulatory protein (Listeria monocytogenes serovar 1/2a (strain ATCC BAA-679 / EGD-e)); test: Binding affinity to GFP expressing Listeria monocytogenes EGD-e PrfA expressed in Escherichia coli assessed as inhibition of bacterial uptake in human Caco2 cells at 1 uM incubated for 4 hrs by flow cytometric method relative to control
Listeria monocytogenes [11] = test: Effect on PrfA expression in Listeria monocytogenes EGD-e at 1 uM by Western blot method; format: functional

## O=C(O)[C@@H]1CSc2c(C3CC3)c(Cc3cccc4ccccc34)cc(=O)n21
[1]
  IC50: 4.5 µM
[2]
  inhibition: Active
[3]
  inhibition: Active
[4]
  inhibition: Active
[5]
  inhibition: Active

## Cc1ccc(Cc2cc(=O)n3c(c2C2CC2)SC[C@H]3C(=O)O)c2ccccc12
[6]
  fold change (FC): 0.5

## O=C(O)[C@@H]1CSc2c(C3CC3)c(Cc3cnc4ccccc4c3)cc(=O)n21
[6]
  fold change (FC): 13

## CN(C)c1c(Cc2cccc3ccccc23)cc(=O)n2c1SCC2C(=O)O.Cl (racemic)
[1]
  IC50: 1.8 µM
[2]
  inhibition: Active
[3]
  inhibition: Active
[4]
  inhibition: Active
Listeria monocytogenes [7]
  Activity: Non-Toxic
[5]
  inhibition: Active
[6]
  fold change (FC): 0.7
[8]
  Activity: Active

## COc1c(Cc2cccc3ccccc23)cc(=O)n2c1SCC2C(=O)O (racemic)
[1]
  IC50: 65.6 µM
[2]
  inhibition: inactive
[3]
  inhibition: inactive
[4]
  inhibition: inactive
[5]
  inhibition: inactive
[6]
  fold change (FC): 7
[8]
  Activity: Active

## Cc1cccc(Cc2cc(=O)n3c(c2N(C)C)SCC3C(=O)O)c1C (racemic)
[1]
  IC50: 3 µM
[2]
  inhibition: Active
[3]
  inhibition: Active
[4]
  inhibition: Active
Listeria monocytogenes [7]
  Activity: Non-Toxic
[5]
  inhibition: Active
[6]
  fold change (FC): 0.6
[8]
  Activity: Active

## C=CCOc1c(Cc2cccc3ccccc23)cc(=O)n2c1SCC2C(=O)O (racemic)
[6]
  fold change (FC): 4

## CC(=O)Nc1c(Cc2cccc3ccccc23)cc(=O)n2c1SCC2C(=O)O (racemic)
[6]
  fold change (FC): 5

## CC(C)COc1c(Cc2cccc3ccccc23)cc(=O)n2c1SCC2C(=O)O (racemic)
[6]
  fold change (FC): 4

## CC(C)Nc1c(Cc2cccc3ccccc23)cc(=O)n2c1SCC2C(=O)O (racemic)
[6]
  fold change (FC): 3

## CCOc1c(Cc2cccc3ccccc23)cc(=O)n2c1SCC2C(=O)O (racemic)
[6]
  fold change (FC): 5

## CCc1cc(=O)n2c(c1N(C)C)SCC2C(=O)O (racemic)
[6]
  fold change (FC): 10

## COC(=O)Nc1c(Cc2cccc3ccccc23)cc(=O)n2c1SCC2C(=O)O (racemic)
[6]
  fold change (FC): 6

## CS(=O)(=O)Nc1c(Cc2cccc3ccccc23)cc(=O)n2c1SCC2C(=O)O (racemic)
[6]
  fold change (FC): 5

## CS(=O)(=O)c1c(Cc2cccc3ccccc23)cc(=O)n2c1SCC2C(=O)O (racemic)
[6]
  fold change (FC): 7

## Nc1c(Cc2cccc3ccccc23)cc(=O)n2c1SCC2C(=O)O (racemic)
[6]
  fold change (FC): 3

## O=C(O)C1CSc2c(O)c(Cc3cccc4ccccc34)cc(=O)n21 (racemic)
[6]
  fold change (FC): 5

## Cc1ccc(Cc2cc(=O)n3c(c2N(C)C)SCC3C(=O)O)c2ccccc12 (racemic; form 1) [listing 1 of 2 here]
Gallus gallus
  Activity: Non-Toxic
[1]
  IC50: 1.5 µM
Listeria monocytogenes [7]
  Activity: Non-Toxic
Listeria monocytogenes [9]
  ILS: 6 h

## Cc1ccc(Cc2cc(=O)n3c(c2N(C)C)SCC3C(=O)O)c2ccccc12 (racemic; form 1) [listing 2 of 2 here]
[10]
  inhibition: 90%
Listeria monocytogenes [11]
  Activity: inactive
[3]
  inhibition: Active
[4]
  inhibition: Active
[6]
  fold change (FC): 0.7
[8]
  Activity: Active

## Cc1ccc(Cc2cc(=O)n3c(c2N(C)C)SCC3C(=O)O)c2ccccc12.c1c[nH]cn1 (racemic; form 2)
Listeria monocytogenes [9]
  ILS: 9 h
